Reference: PMC6982053, “GABAA Receptor Ligands Often Interact with Binding Sites in the Transmembrane Domain and in the Extracellular Domain—Can the Promiscuity Code Be Cracked?” (International Journal of Molecular Sciences, 2020)

Biological target: T1, GABAA receptor α1β1 (β1 subunit) (Rattus norvegicus, UniProt P15431+P62813)
T1 construct: gene Gabrb1; rat α1β1 expressed in Xenopus laevis oocytes; with GABAA receptor α1 subunit
Test: two-electrode voltage clamp, modulation of GABA EC3-5 current (low efficacy)
Assay type: cell-based

T1 sequence (P15431 26-474): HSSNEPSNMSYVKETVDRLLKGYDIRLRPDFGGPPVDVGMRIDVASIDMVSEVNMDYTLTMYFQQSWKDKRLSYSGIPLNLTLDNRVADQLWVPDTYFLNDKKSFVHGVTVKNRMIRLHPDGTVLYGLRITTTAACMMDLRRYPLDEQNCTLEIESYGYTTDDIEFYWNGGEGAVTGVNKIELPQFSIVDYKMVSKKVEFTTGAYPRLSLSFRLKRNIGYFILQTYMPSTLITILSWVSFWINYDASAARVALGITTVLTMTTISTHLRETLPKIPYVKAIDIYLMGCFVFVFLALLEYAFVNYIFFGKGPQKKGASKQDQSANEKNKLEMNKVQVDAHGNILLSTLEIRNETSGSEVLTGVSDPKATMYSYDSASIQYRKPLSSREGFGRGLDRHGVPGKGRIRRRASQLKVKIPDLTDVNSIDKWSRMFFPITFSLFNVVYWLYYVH
T1 sequence (P62813 28-455): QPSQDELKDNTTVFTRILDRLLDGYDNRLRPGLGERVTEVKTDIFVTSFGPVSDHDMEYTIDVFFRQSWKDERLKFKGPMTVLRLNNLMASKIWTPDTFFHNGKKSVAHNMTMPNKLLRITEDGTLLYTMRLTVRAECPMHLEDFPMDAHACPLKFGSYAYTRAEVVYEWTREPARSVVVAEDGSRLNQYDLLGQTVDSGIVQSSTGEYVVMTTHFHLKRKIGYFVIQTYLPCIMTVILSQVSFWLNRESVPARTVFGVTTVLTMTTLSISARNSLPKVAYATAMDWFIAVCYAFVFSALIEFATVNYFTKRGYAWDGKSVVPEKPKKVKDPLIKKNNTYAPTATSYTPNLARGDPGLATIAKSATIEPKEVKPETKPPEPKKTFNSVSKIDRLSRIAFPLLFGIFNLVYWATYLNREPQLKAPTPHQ

EC50: 7.65 µM
Structure (SMILES): O=C(O)c1[nH]c2ccc(Cl)cc2c1/N=N/c1ccc(Br)cc1 [MTI163, (E)-3-((4-bromophenyl)diazenyl)-5-chloro-1H-indole-2-carboxylic Acid]
